Like-named read-outs stand apart in the source and are kept apart here.
Legend:
[1] = tested on: E. coli 16327; assay: microbe, parasite or virus in culture; details: for Antibiotic MIC: E. coli 16327
[2] = tested on: S. aureus 43300; assay: Antibiotic MIC by microdilution with or without sub-MIC polymer; assay type: cell-based, Staphylococcus aureus
[3] = tested on: MRSA 15903; assay: microbe, parasite or virus in culture; assay type: cell-based, Staphylococcus aureus
How it was run: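 Values are FIC indexes, summing each agent's MIC in combination divided by its MIC alone, for MRSA 15903. Interpretation: <0.5 clear re-sensitization, 0.5 to 4 marginal or none, >4 antagonistic.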

[4] = tested on: S. aureus 43300; assay: Antibiotic MIC by microdilution with or without sub-MIC polymer; assay type: cell-based, Staphylococcus aureus; remark: listed apart in the source
Method: MICs were determined by microdilution susceptibility testing in 96-well plates (by Nunc) using inocula of 10^5 bacteria per ml. Cell populations were evaluated by optical density measurements at 620 nm and were calibrated against a set of standards. Hundred (100) μl of a bacterial suspension were added to 100 μl of culture medium (control) or to 100 μl of culture medium containing various polymer concentrations in 2-fold serial dilutions. Inhibition of proliferation was determined by optical density measurements at 620 nm after an incubation period of 24 hours at 37° C.
Table 8 below presents the MIC values of antibiotics in presence or absence of C12(5-ene)KKNC12KNH2 (SEQ ID NO: 2) at sub-MIC levels of the polymer, as measured for the S. aureus strains 43300 (ATCC), 15819 (clinical isolate), 15877 (clinical isolate) and 15852 (clinical isolate). MICs were determined by microdilution susceptibility testing in 96-well plates (Nunc) using inocula of 10^5 bacteria per ml. One hundred (100) μl of a bacterial suspension were added to 100 μl of culture medium (control) or to 100 μl of culture medium containing various antibiotic and C12(5-ene)KKNC12KNH2 (SEQ ID NO: 2) concentrations in 2-fold serial dilutions. Inhibition of proliferation was determined by optical density measurements at 620 nm after an incubation period of 24 hours at 37° C.
100 μl of a bacterial suspension were added to 100 μl of culture medium (control) or to 100 μl of culture medium containing various antibiotic and C14(9-ene)KKNC12KNH2 (SEQ ID NO: 5) concentrations in 2-fold serial dilutions. Inhibition of proliferation was determined by optical density measurements at 620 nm after an incubation period of 24 hours at 37° C.

[5] = +½ MIC (3.12 μM) C12K(KNC12K)2NH2
[6] = +⅓ MIC (2.1 μM) C12K(KNC12K)2NH2

Cc1onc(-c2ccccc2)c1C(=O)N[C@@H]1C(=O)N2[C@@H]1SC(C)(C)[C@@H]2C(=O)O [Oxacillin, oxacillin]
Antibiotic MIC [1, 5]: 512 µg/mL | Antibiotic MIC [1, 6]: >512 µg/mL | Antibiotic MIC ([1]; no polymer (None), Table 9): >512 µg/mL | Antibiotic MIC ([1]; no polymer (None), Table 10): >512 µg/mL | Antibiotic MIC ([1]; no polymer (None), Table 12): >512 µg/mL | MIC, ¼ + MIC OAK ([1]; E. coli U16327, with C12K(KNC10K)3NH2 (SEQ ID NO: 10) at ¼ of its MIC): >512 µg/mL | MIC, ⅓ + MIC OAK ([1]; E. coli U16327, with C12K(KNC10K)3NH2 (SEQ ID NO: 10) at ⅓ of its MIC): >512 µg/mL | Antibiotic MIC, None ([1]; E. coli U-16327, antibiotic alone (Table 15)): >512 µg/mL | Antibiotic MIC in presence of C12K(NC8K)7NH2 (SEQ ID NO: 4), +¼ MIC ([1]; E. coli U-16327, polymer at ¼ of its MIC): >512 µg/mL | Antibiotic MIC in presence of C12K(NC8K)7NH2 (SEQ ID NO: 4), +½ MIC ([1]; E. coli U-16327, polymer at ½ of its MIC): 512 µg/mL | Antibiotic MIC in presence of C12K(NC8K)7NH2 (SEQ ID NO: 4), +⅓ MIC ([1]; E. coli U-16327, polymer at ⅓ of its MIC): >512 µg/mL | MIC ([1]; Escherichia coli, 16327, read-out: MIC, Alone): > 512 µg/mL | Antibiotic MIC ([2]; +¼ MIC (1.6 μM) C12(5-ene)KKNC12KNH2): 0.125 µg/mL | Antibiotic MIC ([2]; +¼ MIC (1.6 μM) C12KKNC12KNH2): 0.5 µg/mL | Antibiotic MIC ([2]; +¼ MIC (1.6 μM) C16(9-ene)KKNC12KNH2): 0.25 to 0.5 µg/mL | Antibiotic MIC [2, 5]: 0.25 µg/mL | Antibiotic MIC ([2]; +½ MIC (3.12 μM) C12KKNC12KNH2): 0.25 µg/mL | Antibiotic MIC ([2]; +½ MIC (3.12 μM) C16(9-ene)KKNC12KNH2): 0.03 to 0.06 µg/mL | Antibiotic MIC ([2]; +⅓ MIC (2.1 μM) C12(5-ene)KKNC12KNH2): 0.125 µg/mL | Antibiotic MIC [2, 6]: 0.25 µg/mL | MIC ([3]; MRSA 15903, +¼ polymer MIC (1.6 μM) NC12(KNC12K)2NH2): 256 µg/mL | MIC ([3]; MRSA 15903, +½ polymer MIC (3.1 μM) NC12(KNC12K)2NH2): 0.17 µg/mL | MIC ([3]; MRSA 15903, +⅓ polymer MIC (2.1 μM) NC12(KNC12K)2NH2): 0.34 µg/mL | MIC ([3]; MRSA 15903, antibiotic alone): 256 µg/mL | concentration up to which oxacillin alone is inactive ([3]; MRSA 15903, oxacillin alone): > 25 µM | MIC, ½ + MIC OAK ([3]; MRSA 15903, with C12K(KNC10K)3NH2 (SEQ ID NO: 10) at ½ of its MIC): 0.5 µg/mL | MIC, ⅓ + MIC OAK ([3]; MRSA 15903, with C12K(KNC10K)3NH2 (SEQ ID NO: 10) at ⅓ of its MIC): 16 to 64 µg/mL | MIC ([3]; S. aureus CI-15903, +polymer (¼ MIC) C12(5-ene)KKNC12KNH2): 64 µg/mL | MIC ([3]; S. aureus CI-15903, +polymer (½ MIC) C12(5-ene)KKNC12KNH2): 0.25 µg/mL | MIC ([3]; S. aureus CI-15903, +polymer (⅓ MIC) C12(5-ene)KKNC12KNH2): 4 µg/mL | MIC ([3]; S. aureus CI-15903, alone): 256 µg/mL | MIC ([3]; Staphylococcus aureus, MRSA, 24 h): 256 µg/mL | MIC ([3]; Staphylococcus aureus, MRSA, read-out: MIC of oxacillin): 256 µg/mL | MIC ([3]; Staphylococcus aureus, MRSA, read-out: MIC of oxacillin, MRSA 15903, + ½ MIC NC12(KNC12K)2NH2): 0.4 µM | MIC ([3]; Staphylococcus aureus, MRSA, read-out: MIC of oxacillin, MRSA 15903, + ½ MIC NC12(KNC12K)2NH2 (text)): 0.17 µg/mL | MIC ([3]; Staphylococcus aureus, MRSA, read-out: MIC of oxacillin, MRSA 15903, + ⅓ MIC NC12(KNC12K)2NH2): 0.8 µM | MIC ([3]; Staphylococcus aureus, MRSA, read-out: MIC of oxacillin, MRSA 15903, + ⅓ MIC NC12(KNC12K)2NH2 (text)): 0.34 µg/mL | MIC ([3]; Staphylococcus aureus, MRSA, read-out: MIC of oxacillin, MRSA 15903, oxacillin alone): 576 µM | Antibiotic MIC ([4]; +¼ MIC (1.6 μM) C14(9-ene)KKNC12KNH2): 0.25 to 0.5 µg/mL | Antibiotic MIC ([4]; +½ MIC (3.12 μM) C12(5-ene)KKNC12KNH2): 0.06 µg/mL | Antibiotic MIC ([4]; +½ MIC (3.12 μM) C14(9-ene)KKNC12KNH2): 0.25 µg/mL | Antibiotic MIC ([4]; +⅓ MIC (2.1 μM) C14(9-ene)KKNC12KNH2): 0.25 µg/mL | Antibiotic MIC ([4]; no polymer (None), Table 8): 0.5 to 1 µg/mL | Antibiotic MIC ([4]; no polymer (None), Table 9): 0.5 µg/mL | Antibiotic MIC ([4]; no polymer (None), Table 10): 0.5 to 1 µg/mL | Antibiotic MIC ([4]; no polymer (None), Table 11): 0.5 µg/mL | Antibiotic MIC ([4]; no polymer (None), Table 12): 0.5 µg/mL
